Measurements published in ChEMBL document CHEMBL4371076 (J Med Chem, 2019).
Active and inactive are the calls of the source.

Tests used:
[1] = Permeability from apical to basolateral side in human Caco2 cells; format: ADME, cell-based; details: Caco-2, read-out: permeability
[2] = target: T1, Nuclear receptor subfamily 1 group I member 2 (Homo sapiens, UniProt O75469); assay: Inhibition of PXR (unknown origin); format: ADME
T1 sequence (O75469 whole entry): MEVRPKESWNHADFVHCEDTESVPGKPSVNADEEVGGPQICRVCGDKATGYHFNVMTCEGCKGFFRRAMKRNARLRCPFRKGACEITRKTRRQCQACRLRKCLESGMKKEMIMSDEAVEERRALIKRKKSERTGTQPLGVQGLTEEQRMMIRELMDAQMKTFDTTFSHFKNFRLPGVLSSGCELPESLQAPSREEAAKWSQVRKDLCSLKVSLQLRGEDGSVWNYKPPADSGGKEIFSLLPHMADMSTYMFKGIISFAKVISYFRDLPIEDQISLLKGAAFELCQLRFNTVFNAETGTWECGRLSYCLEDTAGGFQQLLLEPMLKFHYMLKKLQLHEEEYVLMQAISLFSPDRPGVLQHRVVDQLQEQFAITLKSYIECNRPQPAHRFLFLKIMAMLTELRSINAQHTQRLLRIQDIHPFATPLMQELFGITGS

[3] = Permeability from basolateral to apical side in human Caco2 cells; format: ADME, cell-based; details: Caco-2, read-out: permeability
[4] = target: T2, Sodium channel protein type 9 subunit alpha (Homo sapiens, UniProt Q15858); assay: Inhibition of recombinant human Nav1.7 expressed in HEK293 cells assessed as dissociation time constant at -120 mV holding potential by patch clamp electrophysiology method; format: cell-based
Target sequence in this assay (Q15858 whole entry, looked up): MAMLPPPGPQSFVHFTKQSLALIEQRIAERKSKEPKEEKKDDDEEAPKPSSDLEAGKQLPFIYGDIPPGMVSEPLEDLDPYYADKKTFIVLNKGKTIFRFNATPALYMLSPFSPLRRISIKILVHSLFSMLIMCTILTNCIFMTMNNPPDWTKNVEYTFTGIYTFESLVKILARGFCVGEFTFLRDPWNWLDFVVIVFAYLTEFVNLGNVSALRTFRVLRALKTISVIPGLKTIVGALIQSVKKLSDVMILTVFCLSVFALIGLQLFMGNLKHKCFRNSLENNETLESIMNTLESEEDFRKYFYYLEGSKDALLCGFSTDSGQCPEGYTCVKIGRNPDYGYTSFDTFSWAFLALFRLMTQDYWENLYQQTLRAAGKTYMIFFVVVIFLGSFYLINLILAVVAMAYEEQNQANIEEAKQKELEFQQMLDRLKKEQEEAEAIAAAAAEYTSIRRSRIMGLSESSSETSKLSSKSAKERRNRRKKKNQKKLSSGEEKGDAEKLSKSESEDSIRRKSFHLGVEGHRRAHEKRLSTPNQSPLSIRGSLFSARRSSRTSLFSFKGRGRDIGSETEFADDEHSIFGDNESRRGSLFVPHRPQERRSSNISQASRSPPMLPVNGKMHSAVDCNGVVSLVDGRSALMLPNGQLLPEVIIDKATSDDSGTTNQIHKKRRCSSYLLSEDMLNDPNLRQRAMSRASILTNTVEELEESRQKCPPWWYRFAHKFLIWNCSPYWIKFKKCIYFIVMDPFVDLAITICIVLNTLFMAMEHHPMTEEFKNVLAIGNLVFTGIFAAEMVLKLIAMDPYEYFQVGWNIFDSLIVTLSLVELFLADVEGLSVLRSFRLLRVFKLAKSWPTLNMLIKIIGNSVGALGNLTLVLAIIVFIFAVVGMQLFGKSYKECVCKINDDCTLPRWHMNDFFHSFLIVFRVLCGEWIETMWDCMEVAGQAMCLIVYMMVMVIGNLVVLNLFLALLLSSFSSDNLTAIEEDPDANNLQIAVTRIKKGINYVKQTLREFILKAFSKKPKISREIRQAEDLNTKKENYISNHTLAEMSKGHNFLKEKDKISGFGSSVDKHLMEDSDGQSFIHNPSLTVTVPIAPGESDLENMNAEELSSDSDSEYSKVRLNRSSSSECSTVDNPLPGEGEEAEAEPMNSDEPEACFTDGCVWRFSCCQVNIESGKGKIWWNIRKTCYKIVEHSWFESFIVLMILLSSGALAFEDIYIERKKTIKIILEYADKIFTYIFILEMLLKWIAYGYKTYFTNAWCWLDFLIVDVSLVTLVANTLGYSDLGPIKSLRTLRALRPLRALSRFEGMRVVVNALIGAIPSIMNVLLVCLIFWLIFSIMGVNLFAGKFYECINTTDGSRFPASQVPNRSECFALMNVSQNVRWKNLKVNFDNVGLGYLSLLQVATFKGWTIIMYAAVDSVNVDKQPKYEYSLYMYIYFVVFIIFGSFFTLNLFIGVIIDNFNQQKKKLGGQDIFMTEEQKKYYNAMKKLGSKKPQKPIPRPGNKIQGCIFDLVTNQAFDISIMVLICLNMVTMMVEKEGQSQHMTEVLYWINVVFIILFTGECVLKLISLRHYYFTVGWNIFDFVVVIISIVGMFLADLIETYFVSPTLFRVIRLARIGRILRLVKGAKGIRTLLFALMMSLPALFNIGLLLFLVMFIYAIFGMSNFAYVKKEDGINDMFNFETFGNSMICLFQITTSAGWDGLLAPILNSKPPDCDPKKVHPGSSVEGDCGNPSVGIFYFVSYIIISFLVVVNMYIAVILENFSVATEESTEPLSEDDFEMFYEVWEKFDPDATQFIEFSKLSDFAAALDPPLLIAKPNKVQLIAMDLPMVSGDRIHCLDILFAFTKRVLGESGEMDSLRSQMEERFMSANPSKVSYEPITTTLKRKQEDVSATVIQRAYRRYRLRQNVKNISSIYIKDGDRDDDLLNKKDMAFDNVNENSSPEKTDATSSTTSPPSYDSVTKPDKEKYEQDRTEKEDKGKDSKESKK

[5] = Efflux ratio of permeability in human Caco2 cells; format: ADME, cell-based; details: Caco-2
Cytochrome P450 2D6 [6] = target: T3, Cytochrome P450 2D6 (Homo sapiens, UniProt P10635); assay: Time-dependant inhibition of CYP2D6 in human liver microsomes; format: ADME
[7] = Fraction unbound in human plasma; format: ADME, cell-free
Cytochrome P450 2B6 [8] = target: T4, Cytochrome P450 2B6 (Homo sapiens, UniProt P20813); assay: Time-dependant inhibition of CYP2B6 in human liver microsomes; format: ADME
T4 sequence (P20813 whole entry): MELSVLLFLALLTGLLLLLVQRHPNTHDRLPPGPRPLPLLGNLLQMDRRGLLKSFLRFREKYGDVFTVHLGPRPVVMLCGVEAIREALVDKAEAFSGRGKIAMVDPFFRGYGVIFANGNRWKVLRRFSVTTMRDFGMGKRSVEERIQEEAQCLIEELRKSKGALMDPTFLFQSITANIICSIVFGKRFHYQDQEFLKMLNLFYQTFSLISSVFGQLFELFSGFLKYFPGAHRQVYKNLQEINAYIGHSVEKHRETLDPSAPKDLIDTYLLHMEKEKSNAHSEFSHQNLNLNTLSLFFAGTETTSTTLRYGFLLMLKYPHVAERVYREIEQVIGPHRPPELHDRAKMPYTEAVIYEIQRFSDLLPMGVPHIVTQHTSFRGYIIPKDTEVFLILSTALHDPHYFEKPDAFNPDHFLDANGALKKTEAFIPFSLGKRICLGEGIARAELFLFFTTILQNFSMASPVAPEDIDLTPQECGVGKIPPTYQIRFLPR

[9] = Ratio of unbound plasma concentration in CD1 mouse model of CFA-induced thermal hyperalgesia at 3 to 30 mg/kg, ip to IC50 for recombinant mouse Nav1.7 expressed in HEK293 cells at -70 mV holding potential by patch clamp electrophysiology method; format: ADME, organism-based; details: in vivo
[10] = Unbound plasma concentration in CD1 mouse model of CFA-induced thermal hyperalgesia at 3 to 30 mg/kg, ip; format: ADME, organism-based; details: in vivo
Cytochrome P450 3A4 [11] = target: T5, Cytochrome P450 3A4 (Homo sapiens, UniProt P08684); assay: Time-dependant inhibition of CYP3A4 in human liver microsomes; format: ADME
[12] = Permeability of the compound at pH 5.5 by PAMPA; format: ADME; details: read-out: permeability
Cytochrome P450 2C9 [13] = target: T6, Cytochrome P450 2C9 (Homo sapiens, UniProt P11712); assay: Time-dependant inhibition of CYP2C9 in human liver microsomes; format: ADME
[14] = target: Sodium channel protein type 9 subunit alpha (Mus musculus, UniProt Q62205); assay: Inhibition of Nav1.7 in mouse DRG neurons at -70 mV holding potential by patch clamp electrophysiology method
Mus musculus [15] = assay: Reduction in mechanoreceptor-mediated afferent transmission in mouse assessed as effect on sural nerve mechanosensitivity by measuring decrease in mechanically elicited afferent firing at 30 mg/kg, ip measured at 90 to 120 mins post dose at 98 to 980 mN threshold pressure; format: functional, organism-based
Mus musculus [16] = assay: Analgesic activity in CD1 mouse model of CFA-induced thermal hyperalgesia assessed as reduction in thermal response latency at 30 mg/kg, ip administered 72 hrs post CFA challenge and measured at 180 mins post dose by Hargreave's test; format: functional, organism-based
[17] = Metabolic stability in human liver microsomes assessed as parent compound remaining at 0.5 uM after 10 mins; format: ADME, Microsome; details: read-out: Stability
Cytochrome P450 2D6 [18] = target: T3, Cytochrome P450 2D6; assay: Inhibition of CYP2D6 in human liver microsomes; format: ADME
[19] = target: T2, Sodium channel protein type 9 subunit alpha; assay: Inhibition of recombinant human Nav1.7 expressed in HEK293 cells assessed as association time constant at -70 mV holding potential by patch clamp electrophysiology method; format: cell-based
Target sequence in this assay (Q15858 whole entry, looked up): as the sequence (Q15858 whole entry, looked up) above

[20] = target: T2, Sodium channel protein type 9 subunit alpha; assay: Inhibition of recombinant human Nav1.7 expressed in HEK293 cells at -70 mV holding potential by patch clamp electrophysiology method; format: cell-based
Target sequence in this assay (Q15858 whole entry): as the sequence (Q15858 whole entry, looked up) above

[21] = target: Sodium channel protein type 5 subunit alpha (Homo sapiens, UniProt Q14524); assay: Inhibition of human Nav1.5 expressed in HEK293 cells after 600 secs at -50 mV holding potential by ion works barracuda population patch clamp method; format: cell-based
[22] = target: T2, Sodium channel protein type 9 subunit alpha; assay: Inhibition of human Nav1.7 expressed in HEK293 cells after 600 secs at -60 mV holding potential by ion works barracuda population patch clamp method; format: cell-based
Target sequence in this assay (Q15858 whole entry): as the sequence (Q15858 whole entry, looked up) above

[23] = Permeability of the compound at pH 7.4 by PAMPA; format: ADME; details: read-out: permeability
Cytochrome P450 2B6 [24] = target: T4, Cytochrome P450 2B6; assay: Inhibition of CYP2B6 in human liver microsomes; format: ADME
Cytochrome P450 2C8 = target: T7, Cytochrome P450 2C8 (Homo sapiens, UniProt P10632); assay: Time-dependant inhibition of CYP2C8 in human liver microsomes; format: ADME
T7 sequence (P10632 whole entry): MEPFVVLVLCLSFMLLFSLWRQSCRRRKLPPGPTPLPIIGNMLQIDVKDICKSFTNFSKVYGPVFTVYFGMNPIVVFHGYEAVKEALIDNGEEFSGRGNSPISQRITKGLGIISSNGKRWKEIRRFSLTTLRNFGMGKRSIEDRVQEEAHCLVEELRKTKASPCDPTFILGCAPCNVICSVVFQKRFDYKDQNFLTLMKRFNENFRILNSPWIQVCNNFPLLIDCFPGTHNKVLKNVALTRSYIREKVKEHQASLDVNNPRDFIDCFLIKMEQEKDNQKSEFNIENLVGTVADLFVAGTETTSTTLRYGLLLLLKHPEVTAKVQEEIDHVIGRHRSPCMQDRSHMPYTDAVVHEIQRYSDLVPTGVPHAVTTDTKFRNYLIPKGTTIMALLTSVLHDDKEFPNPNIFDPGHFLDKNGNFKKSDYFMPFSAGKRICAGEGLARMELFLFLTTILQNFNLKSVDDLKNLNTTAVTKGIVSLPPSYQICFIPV

Cytochrome P450 3A4 [25] = target: T5, Cytochrome P450 3A4; assay: Inhibition of CYP3A4 in human liver microsomes; format: ADME
Cytochrome P450 2C9 [26] = target: T6, Cytochrome P450 2C9; assay: Inhibition of CYP2C9 in human liver microsomes; format: ADME

T3 sequence (P10635 whole entry): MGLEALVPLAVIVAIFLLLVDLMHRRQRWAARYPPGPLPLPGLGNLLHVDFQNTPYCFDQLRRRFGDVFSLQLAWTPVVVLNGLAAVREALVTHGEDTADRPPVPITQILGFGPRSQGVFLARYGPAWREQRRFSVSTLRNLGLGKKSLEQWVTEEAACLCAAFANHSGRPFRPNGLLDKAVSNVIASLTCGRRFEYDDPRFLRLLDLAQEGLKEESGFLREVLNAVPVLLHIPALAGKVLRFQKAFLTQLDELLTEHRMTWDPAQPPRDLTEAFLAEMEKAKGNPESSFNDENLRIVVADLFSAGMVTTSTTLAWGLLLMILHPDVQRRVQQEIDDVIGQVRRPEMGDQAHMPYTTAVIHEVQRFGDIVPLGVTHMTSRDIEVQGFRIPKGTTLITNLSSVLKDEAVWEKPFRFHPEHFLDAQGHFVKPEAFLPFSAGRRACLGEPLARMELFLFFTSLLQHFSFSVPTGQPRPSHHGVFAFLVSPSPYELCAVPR
T6 sequence (P11712 whole entry): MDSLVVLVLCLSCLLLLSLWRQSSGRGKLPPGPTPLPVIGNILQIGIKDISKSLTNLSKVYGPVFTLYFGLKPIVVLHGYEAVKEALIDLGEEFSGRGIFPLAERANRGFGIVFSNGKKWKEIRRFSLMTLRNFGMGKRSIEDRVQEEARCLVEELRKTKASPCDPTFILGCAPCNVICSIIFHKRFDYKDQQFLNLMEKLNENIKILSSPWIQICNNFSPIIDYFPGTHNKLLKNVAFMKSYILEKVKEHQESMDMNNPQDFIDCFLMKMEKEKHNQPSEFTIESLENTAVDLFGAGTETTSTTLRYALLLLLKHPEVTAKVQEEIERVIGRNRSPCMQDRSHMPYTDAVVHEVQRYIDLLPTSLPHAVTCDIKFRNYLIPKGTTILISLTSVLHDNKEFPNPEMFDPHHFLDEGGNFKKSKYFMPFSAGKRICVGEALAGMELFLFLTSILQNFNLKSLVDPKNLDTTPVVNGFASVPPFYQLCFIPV
T5 sequence (P08684 whole entry): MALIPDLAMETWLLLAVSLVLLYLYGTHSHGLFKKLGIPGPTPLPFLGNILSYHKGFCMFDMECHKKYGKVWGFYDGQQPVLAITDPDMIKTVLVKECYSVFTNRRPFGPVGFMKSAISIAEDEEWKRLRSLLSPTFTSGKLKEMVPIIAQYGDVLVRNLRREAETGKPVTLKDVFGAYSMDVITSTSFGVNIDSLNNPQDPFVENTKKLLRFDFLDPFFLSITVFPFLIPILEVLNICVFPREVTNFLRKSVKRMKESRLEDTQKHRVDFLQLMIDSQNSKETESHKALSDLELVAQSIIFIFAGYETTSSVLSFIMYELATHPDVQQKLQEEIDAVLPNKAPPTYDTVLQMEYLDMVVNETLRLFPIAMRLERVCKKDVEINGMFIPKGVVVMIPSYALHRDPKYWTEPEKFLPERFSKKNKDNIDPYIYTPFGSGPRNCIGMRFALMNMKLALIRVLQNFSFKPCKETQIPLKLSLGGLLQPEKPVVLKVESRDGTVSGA

Row | Structure (SMILES) | Papp A→B [1] [×10⁻⁶ cm/s] | IC50 [2] [µM] | Papp B→A [3] [×10⁻⁶ cm/s] | TIME [4] [h] | efflux ratio [5] | TDI (Cytochrome P450 2D6 [6]) | fraction unbound [7] | TDI (Cytochrome P450 2B6 [8]) | Ratio [9] | Cp(f) [10] [nM] | TDI (Cytochrome P450 3A4 [11]) | Papp [12] [×10⁻⁶ cm/s] | TDI (Cytochrome P450 2C9 [13]) | IC50 [14] [µM] | Activity (Mus musculus [15]) | Activity (Mus musculus [16]) | remaining at 10 min, 0.5 µM [17] [%] | IC50 (Cytochrome P450 2D6 [18]) [µM] | TIME [19] [h] | IC50 [20] [µM] | further results
1 | CC(C)COc1ncc(-c2cn(C)c3cc(C(=O)NS(C)(=O)=O)ccc23)cc1Cl | < 1.5 | > 50 | 16.8 | 0.0125 | > 5.5 | Not Active | < 0.001 | Not Active | 4 to 5 | 126 | Not Active | 44.3 | Not Active | 0.011 | Active | inactive | 95 | > 40 | 0.00267 | 0.008 | IC50 [21]: 19 µM; IC50 [22]: 0.108 µM; Papp [23]: 21.6 ×10⁻⁶ cm/s; IC50 (Cytochrome P450 2B6 [24]): 9.7 µM; TDI (Cytochrome P450 2C8): Not Active; IC50 (Cytochrome P450 3A4 [25]): > 40 µM; IC50 (Cytochrome P450 2C9 [26]): 9.9 µM
2 | CC(C)COc1ccc(-c2cn(C)c3cc(C(=O)NS(C)(=O)=O)c(F)cc23)cn1 | 6.1 | > 50 | 18.6 | 0.0275 | 3.1 | Not Active | 0.008 | Not Active | 4 to 5 | 532 | Not Active | 80.2 | Not Active | 0.014 | Active | inactive | 98 | > 40 | 0.00336 | 0.025 | IC50 [21]: 16 µM; IC50 [22]: 0.089 µM; Papp [23]: 16.4 ×10⁻⁶ cm/s; IC50 (Cytochrome P450 2B6 [24]): > 40 µM; TDI (Cytochrome P450 2C8): Not Active; IC50 (Cytochrome P450 3A4 [25]): 15 µM; IC50 (Cytochrome P450 2C9 [26]): 27 µM
